The experiment concerns the target T1, HDAC6 (Homo sapiens, UniProt Q9UBN7).
T1 construct: endogenous in cells; host or cells: MM1S (ATCC CRL-2974)
T1 sequence (Q9UBN7 1-1215): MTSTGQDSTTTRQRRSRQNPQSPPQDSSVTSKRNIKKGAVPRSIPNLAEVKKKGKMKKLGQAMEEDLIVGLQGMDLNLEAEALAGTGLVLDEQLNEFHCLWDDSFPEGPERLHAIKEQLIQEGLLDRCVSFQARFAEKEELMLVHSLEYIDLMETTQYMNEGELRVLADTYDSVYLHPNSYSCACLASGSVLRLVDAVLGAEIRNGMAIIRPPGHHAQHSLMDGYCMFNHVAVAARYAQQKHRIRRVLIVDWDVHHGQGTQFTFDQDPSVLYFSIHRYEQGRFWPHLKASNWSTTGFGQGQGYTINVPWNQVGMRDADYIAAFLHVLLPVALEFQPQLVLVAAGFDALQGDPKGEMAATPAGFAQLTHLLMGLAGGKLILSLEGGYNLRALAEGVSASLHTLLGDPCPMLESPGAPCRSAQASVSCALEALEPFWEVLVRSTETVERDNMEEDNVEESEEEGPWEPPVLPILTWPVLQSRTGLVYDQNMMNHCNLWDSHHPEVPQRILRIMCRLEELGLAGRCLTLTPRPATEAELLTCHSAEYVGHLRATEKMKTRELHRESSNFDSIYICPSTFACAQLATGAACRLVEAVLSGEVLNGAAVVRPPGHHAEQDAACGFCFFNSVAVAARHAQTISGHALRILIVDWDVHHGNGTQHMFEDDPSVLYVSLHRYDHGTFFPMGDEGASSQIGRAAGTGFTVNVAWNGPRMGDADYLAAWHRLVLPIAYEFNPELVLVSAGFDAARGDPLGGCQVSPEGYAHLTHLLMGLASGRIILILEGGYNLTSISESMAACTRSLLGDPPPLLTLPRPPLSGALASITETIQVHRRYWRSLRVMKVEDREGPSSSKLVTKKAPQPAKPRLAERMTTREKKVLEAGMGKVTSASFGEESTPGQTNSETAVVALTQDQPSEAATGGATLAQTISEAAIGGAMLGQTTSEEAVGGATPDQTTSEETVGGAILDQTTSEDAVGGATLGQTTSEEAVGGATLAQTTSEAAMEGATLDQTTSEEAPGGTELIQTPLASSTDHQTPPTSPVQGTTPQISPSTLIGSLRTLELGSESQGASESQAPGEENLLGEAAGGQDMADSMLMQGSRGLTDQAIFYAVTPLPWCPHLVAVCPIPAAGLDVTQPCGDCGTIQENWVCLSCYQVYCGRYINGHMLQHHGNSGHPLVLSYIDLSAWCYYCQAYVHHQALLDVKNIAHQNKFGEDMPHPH
Kind of experiment: In-cell ELISA of HDAC6 protein level in MM1S cells. The following applies: 6 h; for inhibition at 0.01 µM / inhibition at 0.1 µM / Dmax: MM1.S; for inhibition at 0.01 µM: n=3, read-out: Degradation (%) 10 nM; for inhibition at 0.1 µM: n=3, read-out: Degradation (%) 100 nM; for DC50 / Dmax: 0.1 nM to 1 μM, nonlinear fit, ± SD; for Dmax: read-out: Dmax (Vehicle %). It is filed as cell-based. The protocol:
FIG. 9 is a histogram depicting the results of screening of compounds for HDAC6 degradation activity by in-cell ELISA. MM1S cells were treated with compounds at 100 nM (blue bars) or 10 nM (red bars) for 6 h. Data was normalized to vehicle (DMSO)-treated group and the bar graph represents as mean of relative HDAC6 protein level (n=3) with ±SD as error bar. Statistical significance was analyzed by one-way ANOVA. Not significant (ns) P>0.05, *P≤0.05, **P≤0.01, ***P≤0.001, ****P≤0.0001.
FIG. 11 is a graph depicting dose response of selected degrader candidates. MM1S cells were treated for 6 h and analyzed by in-cell ELISA. Data was normalized to vehicle (DMSO)-treated group and dot plot represented as mean relative expression (n=3) with ±SD as error bar. Nonlinear fitting of inhibitor concentration vs. response (three parameters) was generated by GraphPad Prism with R2 from 0.97 to 0.99.
FIG. 15 is a histogram depicting relative HDAC6 expression as a function of linker length for compounds 3a through 3k as described in the Examples section, Part 2. Human MM1S cells were treated with 100 nM degraders for 6 hours and analyzed by in-cell ELISA assay.
FIG. 17 is a dose-response curve for degraders 3j (n=1), 3k (n=12) and 2, at concentrations from 1 nM to 300 nM for 4 h in MM1S. See the Examples, Part 2.
To screen the new series of degraders, an in-cell ELISA assay was developed and validated. The compounds were treated at 100 nM and 10 nM in MM1S cells for 6 h. Resulting cells were then fixed and analyzed by in-cell ELISA. […] Degraders including 1 at 100 nM degraded 73.5% to 85.0% of HDAC6 with minor difference. At 10 nM concentration of compounds, obvious structure-activity-relationship (SAR) was observed. […] For example, 12d, 12h, 12i, 12o and 12p all achieved about 70% degradation. Among the C4-linked series, 12d with medium length linker (5+1) achieved most degradation in sub-series 12a-e (m=1). […] Among C5-linked series, the potency of sub-series 12l-p (m=1) increased with the linker length. […] It appeared that both the distance and linking positions contributed to the degradation efficiency. The rigid triazole ring in the middle of the linker likely modulated the plasticity of degrader-bridged ternary complex.
The amount of cellular HDAC6 was measured in response to concentrations of compounds from 0.1 nM to 1 μM. […] The new degraders had single-digit nanomolar DC50, which was about 3 to 5 fold of improvement from 9.12 nM of degrader 1. […] As discussed above, most PROTACs were designed to avoid degrading other proteins except the targeted POIs. However, in these studies, it was hypothesized that HDAC6 degraders with IKZF degradation will have enhanced anti-proliferation effect MM1S cells.
MM1S cells were harvested and plated with 5×10^5 cells in 100 μL media per well 96-wells plate. After overnight seeding, 25 μL media containing 5× dosing concentration of the compounds or vehicle was added to each well. After 6-hour treatment at 37° C. in a humidified 5% CO2 atmosphere, cells were fixed by adding 125 μL 8% formaldehyde in TBS buffer (137 mM NaCl, 25 mM Tris, 2.7 mM potassium chloride, pH 7.6) and incubated at room temperature (RT) for 15 minutes. Removal of fixing solution was followed by once rinse and twice washes with TBS-T washing buffer (137 mM NaCl, 20 mM Tris, 0.1% Tween, pH 7.6). Cells were then permeabilized by adding 100 μL 0.1% Triton-X in TBS and incubated at RT for 15 minutes. Removal of permeabilizing solution was followed by once rinse and once wash with TBS-T. Cellular endogenous peroxidases were quenched by adding 100 μL 1% H2O2 in TBS and incubation at RT for 20 minutes. Removal of quenching solution was followed by once rinse and once wash with TBS-T. Non-specific binding sites were blocked by adding […] 5% BSA in TBS-T (with 0.02% NaN3) and incubation at 4° C. overnight. […]
A general note: In an ELISA, binding on a coated surface is turned into a signal by an enzyme label.

Setting [1] is: 10 nM, 100% minus mean (± SD) relative HDAC6 expression.
Where [2] appears, read: 100 nM, 100% minus mean (± SD) relative HDAC6 expression.

The structures appear in SMILES notation.

Consider `CCCCN(Cc1ccc(C(=O)NO)cc1)C(=O)Nc1ccc(OCCCn2cc(CNc3ccc4c(c3)C(=O)N(C3CCC(=O)NC3=O)C4=O)nn2)cc1` (stereo not drawn) [Compound 12m, 4-((1-butyl-3-(4-(3-(4-(((2-(2,6-dioxopiperidin-3-yl)-1,3-dioxoisoindolin-5-yl)amino)methyl)-1H-1,2,3-triazol-1-yl)propoxy)phenyl)ureido)methyl)-N-hydroxybenzamide], for which the inhibition at 0.01 µM under setting [1] was 60.3 ± 1.3%. Further, under setting [2], the inhibition at 0.1 µM was 81.2 ± 0.6%.
In the case of `O=C(CCCCCCC(=O)N/N=C/c1ccc(OCCOCCOCCn2cc(CNc3cccc4c3C(=O)N(C3CCC(=O)NC3=O)C4=O)nn2)cc1)NO` (stereo not drawn) [Compound 1], the DC50 worked out at 9.12 nM and the Dmax was 84.1 ± 2.41%. Besides, the “Degradation (%) 10 nM” value (10 nM, 100% minus mean (± SD) relative HDAC6 expression, n=3) turned out to be 47.9 ± 0.9%. For the same molecule, the inhibition at 0.01 µM under setting [1] came to 47.9%. Besides, the inhibition at 0.1 µM under setting [2] worked out at 73.5 ± 0.3%.
As to `CCCCN(Cc1ccc(C(=O)NO)cc1)C(=O)Nc1ccccc1` [Next-A, 4-[[butyl[(phenylamino)carbonyl]amino]methyl]-N-hydroxy-benzamide, reference compound], the “effect on expression of HDAC6 compared with vehicle” value by setting is: (10 nM) “didn't affect”; (100 nM) “very minimal effects”.
As for `CCCCN(Cc1ccc(C(=O)NO)cc1)C(=O)Nc1ccc(OCCCCCn2cc(CNc3cccc4c3C(=O)N(C3CCC(=O)NC3=O)C4=O)nn2)cc1` (stereo not drawn) [Compound 12d, 4-((1-butyl-3-(4-((5-(4-(((2-(2,6-dioxopiperidin-3-yl)-1,3-dioxoisoindolin-4-yl)amino)methyl)-1H-1,2,3-triazol-1-yl)pentyl)oxy)phenyl)ureido)methyl)-N-hydroxybenzamide], the DC50 was 1.64 nM and the Dmax is 86.3 ± 1.7%. In addition, under setting [1], the inhibition at 0.01 µM was about 70%. Further, under setting [2], the inhibition at 0.1 µM worked out at 82.7 ± 1.7%.
`Nc1cccc2c1C(=O)N(C1CCC(=O)NC1=O)C2=O` (stereo not drawn) [Pomalidomide, reference compound]: the “effect on expression of HDAC6 compared with vehicle” value was “didn't affect” (10 nM) and “very minimal effects” (100 nM).
